Test results published in PubChem BioAssay (NCI).
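Growth conditions: 96-well plates. Treatment: test compound, 48 hours, 5 concentrations. Analysis: linear interpolation between bracketing concentrations; unreached endpoints set to highest concentration. The concentration for full growth arrest is given as TGI.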

Legend:
Assay in all cases: NCI-60 cell line screen, 48 h
SF-268 CNS = system: SF-268 CNS
MALME-3M melanoma = system: MALME-3M melanoma
HT29 colon = system: HT29 colon
NCI-H522 lung = system: NCI-H522 lung
LOX IMVI melanoma = system: LOX IMVI melanoma
OVCAR-5 ovarian = system: OVCAR-5 ovarian
IGROV1 ovarian = system: IGROV1 ovarian
HCC-2998 colon = system: HCC-2998 colon
ACHN renal = system: ACHN renal
MDA-MB-231 breast = system: MDA-MB-231 breast
HCT-15 colon = system: HCT-15 colon
SK-MEL-2 melanoma = system: SK-MEL-2 melanoma
RPMI-8226 leukemia = system: RPMI-8226 leukemia

Structure (SMILES) | TGI (SF-268 CNS) | TGI (MALME-3M melanoma) | TGI (HT29 colon) | TGI (NCI-H522 lung) | TGI (LOX IMVI melanoma) | TGI (OVCAR-5 ovarian) | TGI (IGROV1 ovarian) | TGI (HCC-2998 colon) | TGI (ACHN renal) | TGI (MDA-MB-231 breast) | TGI (HCT-15 colon) | TGI (SK-MEL-2 melanoma) | TGI (RPMI-8226 leukemia)
NC1=NS(=O)(=O)Nc2nc(-c3ccc(Cl)cc3)c(-c3ccc(Cl)cc3)nc21 | > 100 µM | > 100 µM | > 100 µM | > 100 µM | > 100 µM | > 100 µM | > 100 µM | > 100 µM | > 100 µM | – | – | – | –
O=C(O)CC[N+]1=CCC(c2ccccc2)(c2ccccc2)O1 | > 100 µM | – | > 100 µM | > 100 µM | – | > 100 µM | > 100 µM | > 100 µM | > 100 µM | > 100 µM | > 100 µM | > 100 µM | –
C1CNCCNCCN1 | > 100 µM | – | > 100 µM | > 100 µM | > 100 µM | > 100 µM | > 100 µM | > 100 µM | > 100 µM | > 100 µM | > 100 µM | > 100 µM | > 100 µM
CCCCCCCCCCCCCCCCCC(=O)O[C@H](COC(=O)CCCCCCCCCCC)COC(=O)CCCCCCCCCCCCCCC | > 100 µM | > 100 µM | > 100 µM | – | > 100 µM | > 100 µM | > 100 µM | > 100 µM | > 100 µM | – | > 100 µM | – | > 100 µM
COC(=O)N/N=C(\C)C(CN1CCCCC1)C(C1=C(O)c2ccccc2OC1)c1ccccc1 (configuration not stated) | > 100 µM | > 100 µM | > 100 µM | > 100 µM | > 100 µM | > 100 µM | > 100 µM | – | > 100 µM | – | > 100 µM | > 100 µM | > 100 µM
COc1cc(C)c2c(c1C)OC(=O)c1c(C)c(Cl)c(O)c(C=O)c1O2 | 65.1 µM | 42.3 µM | 70.3 µM | – | 42.8 µM | 81.8 µM | 72.7 µM | 47.5 µM | 35.9 µM | – | – | – | 33.4 µM
O=c1c2c([N+](=O)[O-])cccc2nc2[nH]c3ccccc3n12 | 62 µM | > 75 µM | > 75 µM | – | > 75 µM | > 75 µM | 37.1 µM | 52.2 µM | 29 µM | 31.7 µM | > 75 µM | 42.5 µM | > 75 µM
CNC(=O)Oc1ccc(-c2cn3cc(OC(=O)NC)ccc3n2)cc1 | 75 µM | – | > 100 µM | – | > 100 µM | > 100 µM | > 100 µM | > 100 µM | > 100 µM | > 100 µM | > 100 µM | > 100 µM | 81.9 µM
Cc1cc(C)[n+](CCOc2ccc(/C(=C(/Cl)c3ccccc3)c3ccccc3)cc2)c(C)c1 | 7.55 µM | 3.64 µM | 3.48 µM | 2.62 µM | 2.14 µM | 12.4 µM | 2.33 µM | 2.46 µM | 31.4 µM | – | 27.5 µM | 2.18 µM | 3.59 µM
O=C(CSc1nnc(Cc2ccccc2)o1)Nc1ccc([N+](=O)[O-])cc1 | > 100 µM | > 100 µM | > 100 µM | > 100 µM | > 100 µM | > 100 µM | > 100 µM | > 100 µM | > 100 µM | – | > 100 µM | > 100 µM | > 100 µM
CCCC(C)NC1=C(NC(C)=O)C(=O)c2ccccc2C1=O (configuration not stated) | > 100 µM | > 100 µM | > 100 µM | > 100 µM | > 100 µM | – | > 100 µM | > 100 µM | > 100 µM | – | > 100 µM | > 100 µM | –
O=c1nc2c(c(-c3ccccc3Cl)[nH]1)COC/C2=C\c1ccccc1Cl | > 100 µM | – | > 100 µM | – | > 100 µM | > 100 µM | > 100 µM | > 100 µM | > 100 µM | > 100 µM | > 100 µM | > 100 µM | > 100 µM
Cc1ccn2c(=O)cc(-c3ccccc3)nc2c1 | > 100 µM | > 100 µM | > 100 µM | > 100 µM | – | > 100 µM | > 100 µM | > 100 µM | > 100 µM | > 100 µM | > 100 µM | – | > 100 µM
O=C1OC2(OC2c2ccccc2)c2ccccc21 (configuration not stated) | > 100 µM | > 100 µM | > 100 µM | > 100 µM | > 100 µM | > 100 µM | > 100 µM | > 100 µM | > 100 µM | – | > 100 µM | > 100 µM | > 100 µM
CCN1C(=O)C(=C/C=C/c2ccc([N+](=O)[O-])cc2)C(=O)N(CC)C1=S | 53 µM | – | 50.7 µM | – | 33.2 µM | > 100 µM | 32.6 µM | > 100 µM | 32.1 µM | 47 µM | > 100 µM | 65.3 µM | 95.8 µM
Nc1cccc(Nc2nc3ccccc3nc2NS(=O)(=O)c2ccccc2)c1 | > 100 µM | 72.7 µM | 62.6 µM | – | 47.3 µM | > 100 µM | 86.9 µM | 33.9 µM | > 100 µM | 36 µM | 74.2 µM | 31.3 µM | 52.5 µM
Oc1cc(C2OCCCO2)cc(O)c1O | > 100 µM | > 100 µM | > 100 µM | > 100 µM | – | > 100 µM | > 100 µM | > 100 µM | > 100 µM | – | > 100 µM | > 100 µM | > 100 µM
Cc1cn(C(Cc2ccccc2)OCCO)c(=O)[nH]c1=O (configuration not stated) | – | – | > 100 µM | – | > 100 µM | > 100 µM | > 100 µM | > 100 µM | > 100 µM | > 100 µM | > 100 µM | > 100 µM | > 100 µM
CC(=O)Nc1cc2c(s1)CCC1CC(=O)NN=C21 (configuration not stated) | > 100 µM | > 100 µM | > 100 µM | > 100 µM | > 100 µM | > 100 µM | > 100 µM | – | > 100 µM | – | > 100 µM | > 100 µM | > 100 µM
